Laboratory results as given in ChEMBL document CHEMBL2346526, “Synthesis and antiproliferative activity of C-homo-lactam derivatives of 7-deoxycholic acid” (Bioorg Med Chem Lett, 2013).

How the values were obtained:
Assay type in all cases: functional, cell-based
[1] = Cytotoxicity against human SPC-A cells after 72 hrs by MTT assay
[2] = Cytotoxicity against GNE 2 cells (unknown origin) after 72 hrs by MTT assay
[3] = Cytotoxicity against human MGC7901 cells after 72 hrs by MTT assay
HeLa = assay: Cytotoxicity against human HeLa cells after 72 hrs by MTT assay
[4] = Cytotoxicity against human SMMC-7404 cells after 72 hrs by MTT assay
[5] = Cytotoxicity against human Tu 686 cells after 72 hrs by MTT assay
[6] = Homo sapiens, HeLa, 72 h, read-out: IC50

COC(=O)CC[C@@H](C)[C@H]1CC[C@H]2[C@@H]3CC[C@@H]4C[C@@H](OC(C)=O)CC[C@]4(C)[C@H]3C/C(=N\O)[C@]12C
IC50 [1]: 13.5 µM
IC50 [2]: 17.3 µM
IC50 [3]: 19.8 µM
IC50 (HeLa; [6]): 14.7 µM
IC50 [4]: 15.6 µM
IC50 [5]: 74.3 µM

COC(=O)CC[C@@H](C)[C@H]1CC[C@H]2[C@@H]3CC[C@@H]4C[C@@H](OC(C)=O)CC[C@]4(C)[C@H]3CC(=O)N[C@]12C
IC50 [1]: > 200 µM
IC50 [2]: > 200 µM
IC50 [3]: 80.7 µM
IC50 (HeLa; [6]): 15.9 µM
IC50 [4]: 62.3 µM
IC50 [5]: 65.9 µM

COC(=O)CC[C@@H](C)[C@H]1CC[C@H]2[C@@H]3CC[C@@H]4C[C@@H](O)CC[C@]4(C)[C@H]3CC(=O)N[C@]12C
IC50 [1]: > 200 µM
IC50 [2]: 168 µM
IC50 [3]: > 200 µM
IC50 (HeLa; [6]): 19 µM
IC50 [4]: > 200 µM
IC50 [5]: > 200 µM

C[C@H](CCC(=O)O)[C@H]1CC[C@H]2[C@@H]3CC[C@@H]4C[C@@H](O)CC[C@]4(C)[C@H]3CC(=O)N[C@]12C
IC50 [1]: > 200 µM
IC50 [2]: 168 µM
IC50 [3]: > 200 µM
IC50 (HeLa; [6]): 19.2 µM
IC50 [4]: > 200 µM
IC50 [5]: 44.3 µM

C[C@H](CCC(=O)O)[C@H]1CC[C@H]2[C@@H]3CC[C@@H]4CC(=O)CC[C@]4(C)[C@H]3CC(=O)N[C@]12C
IC50 [1]: > 200 µM
IC50 [2]: > 200 µM
IC50 [3]: > 200 µM
IC50 (HeLa; hela): > 200 µM
IC50 [4]: > 200 µM
IC50 [5]: 16.7 µM

CC(=O)O[C@H]1CC[C@@]2(C)[C@H](CC[C@@H]3[C@@H]2CC(=O)N[C@]2(C)[C@@H]([C@H](C)CCC(=O)O)CC[C@@H]32)C1
IC50 [1]: 185 µM
IC50 [2]: 134 µM
IC50 [3]: 185 µM
IC50 (HeLa; hela): > 200 µM
IC50 [4]: 99.3 µM
IC50 [5]: 19.8 µM

CC(=O)O[C@H]1CC[C@@]2(C)[C@H](CC[C@@H]3[C@@H]2CC(=O)N[C@]2(C)[C@@H]([C@H](C)CCC(=O)N(C)C)CC[C@@H]32)C1
IC50 [1]: 130 µM
IC50 [2]: 151 µM
IC50 [3]: 88.5 µM
IC50 (HeLa; hela): > 200 µM
IC50 [4]: 168 µM
IC50 [5]: 74.5 µM
